Data reported in ChEMBL document CHEMBL1201862, “PubChem BioAssay data set” (2004).
Calls of active or inactive are those of the source.

Legend:
H4 = assay: Luminescence Cell-Based Dose Response HTS to Identify Activators of 5'UTR Stem-Loop Driven Prion Protein mRNA Translation in H4 Neuroglioblastoma Cells. [Related pubchem assays: 1829 (Project Summary), 1814 (Primary HTS)]; type: functional; settings: Homo sapiens
[1] = Luminescence Cell-Based Dose Response HTS to Identify Activators of Luciferase Translation or Activity in H4 […] Cells. [Related pubchem assays: 1829 (Project Summary), 1814 (Primary HTS)]; type: functional
[2] = Luminescence Cell-Based Dose Confirmation HTS to Identify Activators of 5'UTR Stem-Loop Driven Alpha-Synuclein mRNA Translation in H4 Neuroglioblastoma Cells. [Related pubchem assays: 1829 (Project Summary), 1814 (Primary HTS)]; type: functional
Cytochrome P450 2C9 [3] = biological target: T1, Cytochrome P450 2C9 (Homo sapiens, UniProt P11712)
Cytochrome P450 3A4 [4] = biological target: T2, Cytochrome P450 3A4 (Homo sapiens, UniProt P08684);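 further: CYP3A4 tested as one member of a cytochrome P450 panel screen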
BJ [5] = assay: cells; type: functional, cell-based; settings: Homo sapiens
BJ [6] = assay: cytotoxicity toward BJ-TERT-LT-ST fibroblasts, dose response, cell-based, RAS-independent, luminescence (AID 1935); type: functional; settings: Homo sapiens;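 further: BJ fibroblasts immortalized with TERT plus LT and ST oncogenes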
[7] = biological target: Heat shock protein HSP 90-alpha (Homo sapiens, UniProt P07900); type: functional, organism-based
BJ [8] = assay: cytotoxicity toward BJ-TERT fibroblasts, dose response, cell-based, RAS-independent, luminescence (AID 1933); type: functional; settings: Homo sapiens
Paired box protein Pax-8 = Paired box protein Pax-8 (Homo sapiens, UniProt Q06710); assay: inhibitors of PAX8-driven TPO luciferase reporter, dose response, RMG-I cells, cherry-pick (AID 687027); type: functional, cell-based;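 further: luciferase reporter driven by Pax8 target thyroperoxidase promoter measured by SteadyGlo luminescence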
[9] = cytotoxicity toward DRD oncogenic fibroblasts, dose response, cell-based, non-viral oncogenic, luminescence (AID 1934); type: functional; settings: Homo sapiens
[10] = biological target: T3, Heat shock factor protein 1 (Mus musculus, UniProt P38532); assay: inhibition of MG132-induced HSE-luciferase signal, confirmation, cell-based, NIH3T3, luminescence, dose retest (AID 2382); type: functional;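 further: NIH3T3 fibroblasts with HSF1-driven luciferase reporter stressed by proteasome inhibitor MG132; luminescence from HSF1-driven luciferase expression after 8 hours of MG132 stress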
T3 sequence (P38532 whole entry): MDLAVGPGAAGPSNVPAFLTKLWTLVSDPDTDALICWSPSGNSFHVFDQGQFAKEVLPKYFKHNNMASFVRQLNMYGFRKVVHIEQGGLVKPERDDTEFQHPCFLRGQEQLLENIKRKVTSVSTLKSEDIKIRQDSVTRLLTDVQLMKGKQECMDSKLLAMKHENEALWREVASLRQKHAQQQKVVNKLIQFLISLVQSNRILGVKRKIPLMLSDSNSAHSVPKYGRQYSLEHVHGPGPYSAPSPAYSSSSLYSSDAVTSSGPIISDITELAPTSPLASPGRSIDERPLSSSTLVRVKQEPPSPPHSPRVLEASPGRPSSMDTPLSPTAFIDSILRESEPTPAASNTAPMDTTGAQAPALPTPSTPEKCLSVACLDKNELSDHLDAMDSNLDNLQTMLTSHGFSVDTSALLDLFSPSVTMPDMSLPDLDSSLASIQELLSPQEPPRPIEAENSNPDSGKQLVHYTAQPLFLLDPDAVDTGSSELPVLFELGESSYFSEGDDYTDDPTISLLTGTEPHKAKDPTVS

Vero = assay: cells; type: functional; settings: Chlorocebus sabaeus
Cytochrome P450 1A2 = biological target: T4, Cytochrome P450 1A2 (Homo sapiens, UniProt P05177);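 further: PubChem cytochrome P450 panel assay, CYP1A2 panel member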
T4 sequence (P05177 whole entry): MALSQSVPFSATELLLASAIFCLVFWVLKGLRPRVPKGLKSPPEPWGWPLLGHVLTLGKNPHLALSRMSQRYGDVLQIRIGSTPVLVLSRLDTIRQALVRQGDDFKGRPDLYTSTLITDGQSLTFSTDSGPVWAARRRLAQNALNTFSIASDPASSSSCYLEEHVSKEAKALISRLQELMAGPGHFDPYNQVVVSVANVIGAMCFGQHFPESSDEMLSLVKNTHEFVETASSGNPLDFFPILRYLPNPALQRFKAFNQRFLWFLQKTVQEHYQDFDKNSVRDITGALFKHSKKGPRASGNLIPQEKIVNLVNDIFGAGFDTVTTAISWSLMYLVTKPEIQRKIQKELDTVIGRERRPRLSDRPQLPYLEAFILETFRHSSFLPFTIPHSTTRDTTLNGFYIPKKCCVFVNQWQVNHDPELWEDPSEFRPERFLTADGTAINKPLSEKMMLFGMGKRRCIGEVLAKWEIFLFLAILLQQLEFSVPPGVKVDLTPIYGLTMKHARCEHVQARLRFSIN

Cytochrome P450 2D6 = Cytochrome P450 2D6 (Homo sapiens, UniProt P10635);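 further: CYP2D6 member of a cytochrome P450 panel assay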
Cytochrome P450 2C9 [11] = biological target: T1, Cytochrome P450 2C9; remark: listed apart in the source
[12] = LGR2 antagonists, dose response, cell-based, HEK293, CRE-luciferase reporter, cherry pick, set 2 (AID 743343); type: functional;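 further: transfected cells were stimulated with diluted bursicon conditioned medium after compound addition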
[13] = MC4R antagonists, dose response, counter-screen for LGR2 antagonist project, cell-based, plate reader, cherry pick (AID 743444); type: functional;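 further: transfected HEK 293 cells stimulated with alpha-MSH peptide; potency of inhibitors of the alpha-MSH evoked signal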
Cytochrome P450 2C19 = Cytochrome P450 2C19 (Homo sapiens, UniProt P33261); assay: Cytochrome panel assay with activity outcomes. Panel member name: p450-cyp2c19 Compounds with AC50 equal or less than 10 uM are considered active; type: functional; settings: read-out: AC50
cells [14] = type: functional, cell-based
cells [15] = type: functional, cell-based; remark: listed apart in the source
Streptococcus = assay: Group A Streptococcus viability loss, dose response, counter-screen for streptokinase expression inhibitor project, luminescence, BacTiterGlo (AID 1915); type: functional, organism-based;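 further: potency for reduction of bacterial viability or growth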
Streptokinase A = biological target: T5, Streptokinase A (Streptococcus pyogenes serotype M1, UniProt P10520); assay: S. pyogenes streptokinase expression inhibitors, potency, dose response, plasminogen activation absorbance, OD405 (AID 1914); type: functional, Streptococcus pyogenes M1 GAS;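 further: secreted streptokinase activity via plasminogen activation per viability signal from cell pellet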
T5 sequence (P10520 whole entry): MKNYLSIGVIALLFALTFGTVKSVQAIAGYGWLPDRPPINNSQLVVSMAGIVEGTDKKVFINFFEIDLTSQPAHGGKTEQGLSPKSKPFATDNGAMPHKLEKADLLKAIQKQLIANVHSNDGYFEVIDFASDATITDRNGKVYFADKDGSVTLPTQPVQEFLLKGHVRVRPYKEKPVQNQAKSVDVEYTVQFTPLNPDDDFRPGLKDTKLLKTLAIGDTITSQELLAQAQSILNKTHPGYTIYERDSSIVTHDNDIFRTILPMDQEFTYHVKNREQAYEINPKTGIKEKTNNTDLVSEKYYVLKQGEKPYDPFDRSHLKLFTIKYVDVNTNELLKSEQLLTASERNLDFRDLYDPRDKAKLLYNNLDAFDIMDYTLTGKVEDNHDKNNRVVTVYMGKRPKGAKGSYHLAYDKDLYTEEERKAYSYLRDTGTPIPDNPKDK

[16] = test system: Streptococcus sp. 'group A'; assay: growth inhibition of control SK(-) GAS strain, dose response, counter-screen for streptokinase expression inhibitor project, luminescence, kanamycin, BacTiterGlo, confirmation (AID 1900); type: functional, organism-based
[17] = control 3'UTR Renilla luciferase suppression, dose response, counter-screen for Shn3 inhibitor project, cell-based, Clone20-Shn3RL, cherry-picked (AID 624133); type: functional
INS1 = assay: beta cell apoptosis inhibitors, cytokine rescue, dose response, luminescence, retest (AID 449756); type: functional, cell-based; settings: Rattus norvegicus;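 further: cell death triggered by IL-1 beta plus TNF-alpha plus IFN-gamma mixture; protective hits raise ATP signal compared with cytokine alone wells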
[18] = growth suppression of beta-catenin-knockout colon cells, dose response, cell-based, HCT116, human colon tumor (AID 1045); type: functional;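 further: HCT116 colon tumor cells with beta catenin knocked out; cells exposed to compound for 60 hours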
[19] = Luminescence Cell-Based Dose Retest to Confirm Inhibitors of Cancer Stem Cells. [Related pubchem assays (depositor defined):AID2717, AID2721]; type: functional; settings: Homo sapiens
[20] = growth suppression of PTEN-null colon cells, dose response, cell-based, HCT116 PTEN knockout (AID 1047); type: functional;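 further: HCT116 colon tumor cells with PTEN knocked out; cells exposed to compound for 60 hours before readout; potency for loss of cell viability measured by luminescence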
[21] = Shn3 3'UTR reporter inhibitors, dose response, cell-based, Clone20 osteoblasts, firefly luciferase, cherry-picked (AID 624132); type: functional;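 further: firefly luciferase luminescence from reporter carrying the Shn3 3'UTR in osteoblasts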
Cytochrome P450 3A4 [22] = biological target: T2, Cytochrome P450 3A4; remark: listed apart in the source
[23] = HEK293T cytotoxicity, dose response, cytotoxicity control for miR-122 modulator project, cell-based, inhibitor set, cherry-pick, set 2 (AID 720697); type: functional
[24] = miR-122 activators in hepatoma reporter cells, dose response, cell-based, Huh7 psiCHECK-miR122, Renilla luciferase, cherry-picked (AID 651956); type: functional;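 further: huh7 hepatoma cells stably carrying a psiCHECK-2 miR-122 sensor plasmid; renilla luciferase signal reporting endogenous miR-122 activity after 48 h compound exposure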

T2 sequence (P08684 whole entry): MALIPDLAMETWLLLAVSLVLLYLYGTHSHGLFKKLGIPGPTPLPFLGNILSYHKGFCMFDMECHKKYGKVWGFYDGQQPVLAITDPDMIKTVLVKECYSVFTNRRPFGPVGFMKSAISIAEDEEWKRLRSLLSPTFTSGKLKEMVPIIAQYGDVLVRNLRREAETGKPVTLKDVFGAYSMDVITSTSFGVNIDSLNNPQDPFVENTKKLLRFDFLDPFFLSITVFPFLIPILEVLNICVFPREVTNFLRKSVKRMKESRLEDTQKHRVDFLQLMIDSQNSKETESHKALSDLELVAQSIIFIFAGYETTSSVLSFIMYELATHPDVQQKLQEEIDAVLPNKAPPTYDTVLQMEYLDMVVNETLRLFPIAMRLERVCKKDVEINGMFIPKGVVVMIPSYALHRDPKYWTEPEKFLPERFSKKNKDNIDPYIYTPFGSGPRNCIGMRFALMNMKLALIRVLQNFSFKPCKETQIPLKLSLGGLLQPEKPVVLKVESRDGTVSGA
Sequence of Cytochrome P450 2D6 (P10635 whole entry): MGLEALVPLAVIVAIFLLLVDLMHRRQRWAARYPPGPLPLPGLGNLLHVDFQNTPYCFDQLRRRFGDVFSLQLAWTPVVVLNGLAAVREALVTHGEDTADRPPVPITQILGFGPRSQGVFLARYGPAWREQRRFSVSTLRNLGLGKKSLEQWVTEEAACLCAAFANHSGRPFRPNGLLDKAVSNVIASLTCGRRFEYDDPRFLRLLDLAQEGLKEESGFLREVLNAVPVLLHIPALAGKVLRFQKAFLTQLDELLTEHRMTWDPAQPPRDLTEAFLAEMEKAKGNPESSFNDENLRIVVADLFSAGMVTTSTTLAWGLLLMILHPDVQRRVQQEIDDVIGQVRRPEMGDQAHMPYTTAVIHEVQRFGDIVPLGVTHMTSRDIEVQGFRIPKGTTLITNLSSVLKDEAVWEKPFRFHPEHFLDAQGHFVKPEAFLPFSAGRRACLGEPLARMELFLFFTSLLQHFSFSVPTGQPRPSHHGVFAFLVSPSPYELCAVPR
T1 sequence (P11712 whole entry): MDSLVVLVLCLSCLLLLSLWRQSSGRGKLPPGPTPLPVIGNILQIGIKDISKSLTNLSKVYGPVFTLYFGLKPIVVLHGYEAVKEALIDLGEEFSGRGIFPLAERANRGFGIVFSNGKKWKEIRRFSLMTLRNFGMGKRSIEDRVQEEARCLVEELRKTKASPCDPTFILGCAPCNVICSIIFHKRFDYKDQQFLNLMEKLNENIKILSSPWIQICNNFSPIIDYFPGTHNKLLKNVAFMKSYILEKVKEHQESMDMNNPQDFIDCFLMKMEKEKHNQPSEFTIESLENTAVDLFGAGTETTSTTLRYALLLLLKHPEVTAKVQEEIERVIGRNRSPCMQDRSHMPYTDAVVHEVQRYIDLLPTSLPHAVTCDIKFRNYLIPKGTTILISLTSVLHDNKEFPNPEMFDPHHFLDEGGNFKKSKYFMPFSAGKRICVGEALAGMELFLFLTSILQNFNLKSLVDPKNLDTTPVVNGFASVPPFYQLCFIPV
Sequence of Cytochrome P450 2C19 (P33261 whole entry): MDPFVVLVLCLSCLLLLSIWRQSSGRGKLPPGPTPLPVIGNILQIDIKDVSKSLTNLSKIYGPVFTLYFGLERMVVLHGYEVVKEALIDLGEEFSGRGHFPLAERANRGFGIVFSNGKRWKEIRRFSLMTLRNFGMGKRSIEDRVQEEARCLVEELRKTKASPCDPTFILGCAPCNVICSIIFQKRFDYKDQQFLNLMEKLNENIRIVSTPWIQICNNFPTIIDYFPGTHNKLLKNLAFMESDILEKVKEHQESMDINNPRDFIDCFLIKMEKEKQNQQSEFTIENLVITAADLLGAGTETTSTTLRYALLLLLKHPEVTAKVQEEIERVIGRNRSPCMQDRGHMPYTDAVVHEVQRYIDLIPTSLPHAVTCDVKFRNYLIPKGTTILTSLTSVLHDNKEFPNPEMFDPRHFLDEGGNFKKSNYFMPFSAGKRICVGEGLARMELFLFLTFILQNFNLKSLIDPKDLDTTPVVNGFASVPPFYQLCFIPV
Sequence of Paired box protein Pax-8 (Q06710 whole entry): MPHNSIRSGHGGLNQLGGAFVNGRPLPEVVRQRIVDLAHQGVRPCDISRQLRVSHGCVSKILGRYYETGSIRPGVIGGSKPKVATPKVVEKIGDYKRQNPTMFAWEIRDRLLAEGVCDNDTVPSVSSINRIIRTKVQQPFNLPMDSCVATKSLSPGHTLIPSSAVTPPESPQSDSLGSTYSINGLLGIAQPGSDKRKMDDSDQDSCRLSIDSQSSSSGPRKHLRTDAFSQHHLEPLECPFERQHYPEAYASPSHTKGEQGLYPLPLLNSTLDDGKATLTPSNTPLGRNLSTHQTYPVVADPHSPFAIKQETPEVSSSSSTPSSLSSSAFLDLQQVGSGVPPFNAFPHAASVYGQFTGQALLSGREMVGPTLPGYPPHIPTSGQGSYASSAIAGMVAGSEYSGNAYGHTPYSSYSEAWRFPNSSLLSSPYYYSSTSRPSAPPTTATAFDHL

## CC(C)OC(=O)CC12CN(C)CC(CC(=O)OC(C)C)(CN(C)C1)C2=O
H4
  EC50: 37 µM (active)
[1]
  EC50: 72.4 µM (active)
[2]
  EC50: 47.6 µM (active)
Cytochrome P450 2C9 [3]
  AC50: inconclusive

## C[C@@]12CC[C@H]3[C@@H](CCC4=CC(=O)CC[C@]43C)[C@H]1CC[C@H]2C(=O)CO
Cytochrome P450 3A4 [4]
  AC50: inconclusive

## S=C1SCN(Cc2cccnc2)CN1Cc1cccnc1
BJ [5]
  EC50: 4.49 µM (active)
BJ [6]
  EC50: 26.1 µM (active)
[7]
  AC50: 4.53 µM (active)
BJ [8]
  EC50: 2.48 µM (active)
Paired box protein Pax-8
  AC50: 3.62 µM (active)
[9]
  EC50: 8.06 µM (inconclusive)
[10]
  EC50: > 195 µM (not active)
Vero
  CC50: 10.4 µM (active)

## COc1ccc(S(=O)(=O)Nc2cccc(Cl)c2)cc1OC
Cytochrome P450 2C9 [3]
  AC50: inconclusive
Cytochrome P450 1A2
  AC50: 31.6 µM (inconclusive)

## COc1cc(/C=C/C(=O)Nc2cc(C(F)(F)F)ccc2Cl)cc(OC)c1OC
Cytochrome P450 2C9 [3]
  AC50: inconclusive
Cytochrome P450 2D6
  AC50: 0.00562 µM (inconclusive)
Cytochrome P450 1A2
  AC50: 15.8 µM (inconclusive)

## CCSc1ncnc2c1sc1nc(-c3ccco3)c3c(c12)CC(C)(C)OC3
Cytochrome P450 2C9 [11]
  AC50: 2 µM (inconclusive)
Cytochrome P450 3A4 [4]
  AC50: inconclusive

## Cc1c(NC(=O)c2ccc(-c3ccccc3)cc2)cccc1C(=O)O
[12]
  AC50: 17.1 µM (active)
[13]
  AC50: 13.5 µM (active)

## N#Cc1ccc(CN2CCC3(CC2)CCN(C(=O)Oc2ccccc2)CC3)cc1
Cytochrome P450 3A4 [4]
  AC50: inconclusive

## NS(=O)(=O)c1ccc(CNC(=O)/C=C/c2c(Cl)cccc2Cl)cc1
Cytochrome P450 2C9 [3]
  AC50: inconclusive
Cytochrome P450 2C19
  AC50: 25.1 µM (inconclusive)

## CC(=O)O[C@H]1CC[C@@]2(C)[C@@H](CC[C@H]3[C@H]2CC(=O)[C@@]2(C)[C@@H]3C[C@H]3CC(C)=CC(=O)[C@H]32)C1
Cytochrome P450 3A4 [4]
  AC50: inconclusive

## CC(C)(C)NC(=O)CN(Cc1ccc2c(c1)OCO2)C(=O)CNS(=O)(=O)c1ccc(F)cc1
Cells [14]
  EC50: > 350 µM (not active)
Cells [15]
  EC50: > 350 µM (not active)

## O=C(Oc1ccccc1)N1CCC2(CC1)CCN(c1ccccc1)CC2
Cytochrome P450 3A4 [4]
  AC50: inconclusive

## O=S(=O)(NCc1nnc2c(C(F)(F)F)cc(Cl)cn12)c1ccccc1
Streptococcus
  EC50: > 150 µM (not active)
Streptokinase A
  EC50: > 150 µM (not active)
[16]
  EC50: > 150 µM (not active)
Cells [14]
  EC50: > 350 µM (not active)
Cells [15]
  EC50: > 350 µM (not active)

## Cc1nn(Cc2c(Cl)cccc2Cl)c(C)c1NC(=O)c1cn(-c2ccccc2)nc1-c1ccccc1
[17]
  AC50: 25.8 µM (active)
INS1
  AC50: 2.46 µM (active)
Streptococcus
  EC50: 21.6 µM (active)
[18]
  EC50: 4.04 µM (active)
[19]
  AC50: 1.01 µM (active)
Streptokinase A
  EC50: > 150 µM (not active)
[16]
  EC50: 8.01 µM (active)
[20]
  EC50: 4.36 µM (active)
[21]
  AC50: 55 µM (active)

## O=C1CCCc2ccccc2N1Cc1ccc(F)cc1
Cells [14]
  EC50: > 350 µM (not active)
Cells [15]
  EC50: > 350 µM (not active)

## O=c1c2ccccc2nnn1CSc1nnnn1-c1ccccc1
Cytochrome P450 3A4 [22]
  AC50: 12.6 µM (inconclusive)
Cytochrome P450 2C9 [3]
  AC50: inconclusive
Cytochrome P450 2D6
  AC50: 17.8 µM (inconclusive)
Cytochrome P450 1A2
  AC50: 25.1 µM (inconclusive)

## Cc1nc2ccc3nc(NC(=O)c4ccc(S(=O)(=O)N5CCOCC5)cc4)sc3c2s1
Cytochrome P450 3A4 [4]
  AC50: inconclusive

## O=C(/C=C/c1cc2c(cc1Br)OCO2)NCc1ccc(Cl)cc1
Cytochrome P450 2C9 [3]
  AC50: inconclusive
Cytochrome P450 2C19
  AC50: 17.8 µM (inconclusive)

## COc1ccccc1C(=O)Nc1ccccc1SC(=O)c1ccccc1OC
Cells [14]
  EC50: > 350 µM (not active)
Cells [15]
  EC50: > 350 µM (not active)

## O=C(CN1CCC(C(=O)c2ccc(Cl)cc2)CC1)Nc1ccc2c(c1)OCCO2
Cells [14]
  EC50: > 350 µM (not active)
Cells [15]
  EC50: > 350 µM (not active)

## CCCSCCCNC(=O)c1ccccc1NC(=O)C1=CSCCO1
Cells [14]
  EC50: > 350 µM (not active)
Cells [15]
  EC50: 297 µM (active)

## C#CC[N+](CC)(CC)CC#Cc1cccc(Cl)c1.[Br-]
Cytochrome P450 3A4 [4]
  AC50: inconclusive
Cytochrome P450 2D6
  AC50: 2.24 µM (inconclusive)

## COc1ccc(CN2CCOC2=O)cc1OC
[23]
  AC50: 9.25 µM (active)

## C/C=C/c1ccc([C@H]2[C@@H](CNC(=O)CC)N(Cc3ccccn3)[C@H]2CO)cc1
[23]
  AC50: 0.454 µM (active)

## C[C@H](CO)N1C[C@H](C)[C@@H](CN(C)Cc2ccc(Oc3ccccc3)cc2)Oc2ncc(-c3cncnc3)cc2C1=O
[23]
  AC50: 0.511 µM (active)
[24]
  AC50: 26 µM (active)
